Laboratory results reported in patent US9012398B2, “Acylated exendin-4 compounds” (priority 2006, dated 2015).
Like-named read-outs stand apart in the source and are kept apart here. Starred links: 1 amine or outer side, 2 acyl side, 3 side chain; linkers in the order of their positions; H or OH if unused. Residues, ends and D or L forms follow the SMILES beside them. Groups on a side chain read outwards from the residue. *: point of attachment. γGlu = O=C(O)[C@H](CCC(=O)[*:2])N[*:1]; Stearoyl = CCCCCCCCCCCCCCCCCC(=O)*; Palmitoyl = CCCCCCCCCCCCCCCC(=O)*; AEEA = NCCOCCOCC(=O)O

Biological target: T1, human GLP-1 receptor (Homo sapiens, UniProt P43220)
T1 construct: expressed in transfected cells; host or cells: BHK cells, clone BHK-467-12A; plasma membrane preparation
T1 sequence (P43220 24-463): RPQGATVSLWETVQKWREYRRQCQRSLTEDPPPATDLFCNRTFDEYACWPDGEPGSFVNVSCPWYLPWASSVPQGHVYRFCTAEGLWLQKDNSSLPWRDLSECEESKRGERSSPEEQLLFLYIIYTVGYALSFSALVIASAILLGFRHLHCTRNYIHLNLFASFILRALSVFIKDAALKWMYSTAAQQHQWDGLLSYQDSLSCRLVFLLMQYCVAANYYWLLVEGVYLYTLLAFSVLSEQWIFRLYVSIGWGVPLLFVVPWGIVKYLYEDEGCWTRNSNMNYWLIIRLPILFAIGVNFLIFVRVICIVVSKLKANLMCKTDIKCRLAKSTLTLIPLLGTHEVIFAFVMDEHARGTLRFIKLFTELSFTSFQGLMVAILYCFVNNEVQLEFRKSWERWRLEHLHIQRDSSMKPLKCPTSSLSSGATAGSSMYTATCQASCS
Assay: Functional receptor assay: cAMP formation in plasma membranes of BHK cells expressing the cloned human GLP-1 receptor (GLP1cAMPma)
Format: biochemical
Protocol: The term “insulinotropic agent” as used herein means a compound which is an agonist of the human GLP-1 receptor, i.e. a compound which stimulates the formation of cAMP in a suitable medium containing the human GLP-1 receptor (one such medium disclosed below). The potency of an insulinotropic agent is determined by calculating the EC50 value from the dose-response curve as described below.
The cells were washed twice in phosphate buffered saline and harvested with Versene. Plasma membranes were prepared from the cells by homogenisation with an Ultraturrax in buffer 1 (20 mM HEPES-Na, 10 mM EDTA, pH 7.4). The homogenate was centrifuged at 48,000×g for 15 min at 4° C. The pellet was suspended by homogenization in buffer 2 (20 mM HEPES-Na, 0.1 mM EDTA, pH 7.4), then centrifuged at 48,000×g for 15 min at 4° C. The washing procedure was repeated one more time. The final pellet was suspended in buffer 2 and used immediately for assays or stored at −80° C.
The functional receptor assay was carried out by measuring cyclic AMP (cAMP) as a response to stimulation by the insulinotropic agent. cAMP formed was quantified by the AlphaScreen™ cAMP Kit (Perkin Elmer Life Sciences). Incubations were carried out in half-area 96-well microtiter plates in a total volume of 50 μL buffer 3 (50 mM Tris-HCl, 5 mM HEPES, 10 mM MgCl2, pH 7.4) and with the following additions: 1 mM ATP, 1 μM GTP, 0.5 mM 3-isobutyl-1-methylxanthine (IBMX), 0.01% Tween-20, 0.1% BSA, 6 μg membrane preparation, 15 μg/mL acceptor beads, 20 μg/mL donor beads preincubated with 6 nM biotinyl-cAMP. […] GTP was freshly prepared for each experiment. The plate was incubated in the dark with slow agitation for three hours at room temperature followed by counting in the Fusion™ instrument (Perkin Elmer Life Sciences). Concentration-response curves were plotted for the individual compounds and EC50 values estimated using a four-parameter logistic model with Prism v. 4.0 (GraphPad, Carlsbad, Calif.).

[1] = cAMP, membranes with human GLP-1 receptor, mean value, read-out: GLP1cAMPma (3693) [EC50 (nM)] Mean Value

Row | Structure (SMILES) | EC50 [nM] | EC50 [1] [nM]
1 | CCCCCCCCCCCCCCCC(=O)N[C@@H](CCC(=O)NCCOCCOCC(=O)NCCCC[C@H](NC(=O)[C@H](CO)NC(=O)[C@H](CO)NC(=O)[C@@H]1CCCN1C(=O)CNC(=O)CNC(=O)[C@H](CC(N)=O)NC(=O)[C@H](CCCNC(=N)N)NC(=O)[C@H](CC(C)C)NC(=O)[C@H](Cc1c[nH]c2ccccc12)NC(=O)[C@H](CCC(=O)O)NC(=O)[C@@H](NC(=O)[C@H](Cc1ccccc1)NC(=O)[C@H](CC(C)C)NC(=O)[C@H](CCCNC(=N)N)NC(=O)[C@@H](NC(=O)[C@H](C)NC(=O)[C@H](CCC(=O)O)NC(=O)[C@H](CCC(=O)O)NC(=O)[C@H](CCC(=O)O)NC(=O)[C@H](CC(C)C)NC(=O)[C@H](CCC(N)=O)NC(=O)[C@H](CCCNC(=N)N)NC(=O)[C@H](CO)NC(=O)[C@H](CC(C)C)NC(=O)[C@H](CC(=O)O)NC(=O)[C@H](CO)NC(=O)[C@@H](NC(=O)[C@H](Cc1ccccc1)NC(=O)[C@@H](NC(=O)CNC(=O)[C@H](CCC(=O)O)NC(=O)CNC(=O)[C@@H](N)Cc1c[nH]cn1)[C@@H](C)O)[C@@H](C)O)C(C)C)[C@@H](C)CC)C(=O)N[C@@H](C)C(=O)N1CCC[C@H]1C(=O)N1CCC[C@H]1C(=O)N1CCC[C@H]1C(=O)N[C@@H](CO)C(N)=O)C(=O)O [Example 7, N-ε^34-[2-(2-[2-[4-hexadecanoylamino-4(S)-carboxybutyrylamino]ethoxy]ethoxy)acetyl][Arg^12,27,Leu^14,Lys^34] Exendin-4(1-39)amide] (H-HGEGTFTSDLSRQLEEEAVRLFIEWLRNGGPSSK([AEEA-γGlu-Palmitoyl])APPPS-NH2) | 0.012 | 
2 | CCCCCCCCCCCCCCCCCC(=O)N[C@@H](CCC(=O)NCCOCCOCC(=O)NCCOCCOCC(=O)NCCCC[C@H](NC(=O)[C@@H]1CCCN1C(=O)CNC(=O)CNC(=O)[C@H](CCCNC(=N)N)NC(=O)[C@@H](NC(=O)[C@H](CC(C)C)NC(=O)[C@H](Cc1c[nH]c2ccccc12)NC(=O)[C@H](CCC(=O)O)NC(=O)[C@@H](NC(=O)[C@H](Cc1ccccc1)NC(=O)[C@H](CC(C)C)NC(=O)[C@H](CCCNC(=N)N)NC(=O)[C@@H](NC(=O)[C@H](C)NC(=O)[C@H](CCC(=O)O)NC(=O)[C@H](CCC(=O)O)NC(=O)[C@H](CCC(=O)O)NC(=O)[C@H](CC(C)C)NC(=O)[C@H](CCC(N)=O)NC(=O)[C@H](CCCNC(=N)N)NC(=O)[C@H](CO)NC(=O)[C@H](CC(C)C)NC(=O)[C@H](CC(=O)O)NC(=O)[C@H](CO)NC(=O)[C@@H](NC(=O)[C@H](Cc1ccccc1)NC(=O)[C@@H](NC(=O)CNC(=O)[C@H](CCC(=O)O)NC(=O)CNC(=O)[C@@H](N)Cc1c[nH]cn1)[C@@H](C)O)[C@@H](C)O)C(C)C)[C@@H](C)CC)C(C)C)C(=O)N[C@@H](CO)C(=O)NCC(=O)N[C@@H](C)C(=O)N1CCC[C@H]1C(=O)N1CCC[C@H]1C(=O)N1CCC[C@H]1C(=O)N[C@@H](CO)C(N)=O)C(=O)O [Example 17, N-ε^32-(2-(2-(2-(2-(2-(2-(4-(Octadecanoylamino)-4(S)-carboxybutyrylamino))ethoxy)ethoxy)acetylamino)ethoxy)ethoxy)acetyl[Arg^12,Leu^14,Val^27,Arg^28,Lys^32]Exendin-4-(1-39)amide] (H-HGEGTFTSDLSRQLEEEAVRLFIEWLVRGGPK([AEEA-AEEA-γGlu-Stearoyl])SGAPPPS-NH2; N-terminus assumed) | 0.025 | 
3 | CCCCCCCCCCCCCCCC(=O)N[C@@H](CCC(=O)NCCOCCOCC(=O)NCCOCCOCC(=O)NCCCC[C@H](NC(=O)[C@H](CO)NC(=O)[C@H](CO)NC(=O)[C@@H]1CCCN1C(=O)CNC(=O)CNC(=O)[C@H](CC(N)=O)NC(=O)[C@H](CCCNC(=N)N)NC(=O)[C@H](CC(C)C)NC(=O)[C@H](Cc1c[nH]c2ccccc12)NC(=O)[C@H](CCC(=O)O)NC(=O)[C@@H](NC(=O)[C@H](Cc1ccccc1)NC(=O)[C@H](CC(C)C)NC(=O)[C@H](CCCNC(=N)N)NC(=O)[C@@H](NC(=O)[C@H](C)NC(=O)[C@H](CCC(=O)O)NC(=O)[C@H](CCC(=O)O)NC(=O)[C@H](CCC(=O)O)NC(=O)[C@H](CC(C)C)NC(=O)[C@H](CCC(N)=O)NC(=O)[C@H](CCCNC(=N)N)NC(=O)[C@H](CO)NC(=O)[C@H](CC(C)C)NC(=O)[C@H](CC(=O)O)NC(=O)[C@H](CO)NC(=O)[C@@H](NC(=O)[C@H](Cc1ccccc1)NC(=O)[C@@H](NC(=O)CNC(=O)[C@H](CCC(=O)O)NC(=O)CNC(=O)[C@@H](N)Cc1c[nH]cn1)[C@@H](C)O)[C@@H](C)O)C(C)C)[C@@H](C)CC)C(=O)N[C@@H](C)C(=O)N1CCC[C@H]1C(=O)N1CCC[C@H]1C(=O)N1CCC[C@H]1C(=O)N[C@@H](CO)C(N)=O)C(=O)O [Example 6, N-ε^34-[2-(2-[2-(2-[2-(2-[4-hexadecanoylamino-4(S)-carboxybutyrylamino]ethoxy)ethoxy]acetylamino)ethoxy]ethoxy)acetyl] [Arg^12,27,Leu^14,Lys^34]Exendin-4(1-39)amide] (H-HGEGTFTSDLSRQLEEEAVRLFIEWLRNGGPSSK([AEEA-AEEA-γGlu-Palmitoyl])APPPS-NH2; N-terminus assumed) |  | 0.018
4 | CCCCCCCCCCCCCCCC(=O)N[C@@H](CCC(=O)NCCOCCOCC(=O)NCCOCCOCC(=O)NCCCC[C@H](NC(=O)[C@@H](NC(=O)[C@H](C)NC(=O)[C@H](CCC(=O)O)NC(=O)[C@H](CCC(=O)O)NC(=O)[C@H](CCC(=O)O)NC(=O)[C@H](CC(C)C)NC(=O)[C@H](CCC(N)=O)NC(=O)[C@H](CCCNC(=N)N)NC(=O)[C@H](CO)NC(=O)[C@H](CC(C)C)NC(=O)[C@H](CC(=O)O)NC(=O)[C@H](CO)NC(=O)[C@@H](NC(=O)[C@H](Cc1ccccc1)NC(=O)[C@@H](NC(=O)CNC(=O)[C@H](CCC(=O)O)NC(=O)CNC(=O)[C@@H](N)Cc1c[nH]cn1)[C@@H](C)O)[C@@H](C)O)C(C)C)C(=O)N[C@@H](CC(C)C)C(=O)N[C@@H](Cc1ccccc1)C(=O)N[C@H](C(=O)N[C@@H](CCC(=O)O)C(=O)N[C@@H](Cc1c[nH]c2ccccc12)C(=O)N[C@@H](CC(C)C)C(=O)N[C@@H](CCCNC(=N)N)C(=O)N[C@@H](CCC(N)=O)C(=O)NCC(=O)NCC(=O)N1CCC[C@H]1C(=O)N[C@@H](CO)C(=O)N[C@@H](CO)C(=O)NCC(=O)N[C@@H](C)C(=O)N1CCC[C@H]1C(=O)N1CCC[C@H]1C(=O)N1CCC[C@H]1C(=O)N[C@@H](CO)C(N)=O)[C@@H](C)CC)C(=O)O [Example 18, N-ε^20-2-(2-(2-(2-(2-(2-(4-(Hexadecanoylamino)-4(S)-carboxybutyrylamino)ethoxy)ethoxy)acetylamino)ethoxy)ethoxy)acetyl[Arg^12,27,Leu^14,Lys^20,Gln^28]Exendin-4-(1-39)-peptide amide] (H-HGEGTFTSDLSRQLEEEAVK([AEEA-AEEA-γGlu-Palmitoyl])LFIEWLRQGGPSSGAPPPS-NH2; N-terminus assumed) |  | 0.033
